Assay results as given in the supplement of paper PMC12463676, “Small-molecule dissolution of stress granules by redox modulation benefits ALS models” (Nature Chemical Biology, 2025).

How the values were obtained:
potassium arsenate = compound: O=[As]([O-])(O)O.[K+] [potassium arsenate]; assay: thermal stability z-score vs DMSO; higher = more thermally stabilized by treatment; details: HeLa; arsenate concentration 1 mM
Experimental: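 Cellular thermal proteome profiling in HeLa cells treated with 1 mM arsenate for 1 h (DMSO pretreatment), heated to ten temperatures (37-66.3 °C). Soluble protein was quantified by TMT mass spectrometry relative to DMSO controls; the thermal stability score was transformed to a z-score; mean of n = 3 experiments.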

lipoamide = compound: NC(=O)CCCCC1CCSS1 [lipoamide]; assay: as above; details: HeLa, lipoamide concentration 100 µM
Experimental: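 Cellular thermal proteome profiling in HeLa cells. Cells were treated with 100 µM lipoamide for 1 h, with or without 1 mM arsenate for a further 1 h, then heated to ten temperatures (37-66.3 °C), and soluble protein was quantified by TMT mass spectrometry relative to 0.1% DMSO controls. The thermal stability score (sum of log2 fold changes minus the abundance score) was transformed to a z-score; mean of n = 3 experiments.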

[1] = arsenate co-treatment: 1 mM arsenate 1 h
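Note: each temperature applied for 3 min, abundance score taken as mean log2 fold change at the two lowest temperatures, z-score obtained by mean subtraction and division by SD.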

UniProt P11274, sequence (P11274 whole entry): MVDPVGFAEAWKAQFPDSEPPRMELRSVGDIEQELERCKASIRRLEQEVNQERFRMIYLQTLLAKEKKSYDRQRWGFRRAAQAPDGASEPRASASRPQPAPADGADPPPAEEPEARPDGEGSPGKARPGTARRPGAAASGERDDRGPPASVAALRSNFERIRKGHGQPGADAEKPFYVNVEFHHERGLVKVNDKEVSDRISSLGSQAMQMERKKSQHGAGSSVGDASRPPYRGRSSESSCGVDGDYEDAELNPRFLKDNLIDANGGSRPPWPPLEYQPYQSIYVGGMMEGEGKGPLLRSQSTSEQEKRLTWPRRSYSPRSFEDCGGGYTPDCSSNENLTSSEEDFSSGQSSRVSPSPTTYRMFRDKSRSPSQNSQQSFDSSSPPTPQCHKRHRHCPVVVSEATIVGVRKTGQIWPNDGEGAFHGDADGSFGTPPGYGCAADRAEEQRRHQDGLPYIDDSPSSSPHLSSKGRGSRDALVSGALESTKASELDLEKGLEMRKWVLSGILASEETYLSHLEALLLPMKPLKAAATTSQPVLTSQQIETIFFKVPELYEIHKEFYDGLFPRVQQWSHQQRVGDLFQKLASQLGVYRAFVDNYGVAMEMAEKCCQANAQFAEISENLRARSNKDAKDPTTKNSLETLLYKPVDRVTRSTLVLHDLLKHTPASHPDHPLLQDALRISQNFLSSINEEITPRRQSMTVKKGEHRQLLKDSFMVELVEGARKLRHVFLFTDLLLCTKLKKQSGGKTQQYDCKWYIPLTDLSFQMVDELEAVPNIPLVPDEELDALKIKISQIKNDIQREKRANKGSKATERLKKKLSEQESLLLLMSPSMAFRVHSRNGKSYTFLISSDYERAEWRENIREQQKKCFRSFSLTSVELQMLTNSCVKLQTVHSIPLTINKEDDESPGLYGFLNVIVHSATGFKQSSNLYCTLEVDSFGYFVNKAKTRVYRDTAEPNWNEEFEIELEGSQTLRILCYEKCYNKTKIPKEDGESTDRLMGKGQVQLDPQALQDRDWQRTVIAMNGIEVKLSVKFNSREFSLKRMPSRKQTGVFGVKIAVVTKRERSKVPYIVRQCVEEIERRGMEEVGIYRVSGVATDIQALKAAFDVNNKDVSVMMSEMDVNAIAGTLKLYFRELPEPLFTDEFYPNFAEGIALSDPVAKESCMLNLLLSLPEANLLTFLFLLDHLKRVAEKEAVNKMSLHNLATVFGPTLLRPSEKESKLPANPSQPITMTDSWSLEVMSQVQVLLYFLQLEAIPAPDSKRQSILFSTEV
UniProt O75934, sequence (O75934 whole entry): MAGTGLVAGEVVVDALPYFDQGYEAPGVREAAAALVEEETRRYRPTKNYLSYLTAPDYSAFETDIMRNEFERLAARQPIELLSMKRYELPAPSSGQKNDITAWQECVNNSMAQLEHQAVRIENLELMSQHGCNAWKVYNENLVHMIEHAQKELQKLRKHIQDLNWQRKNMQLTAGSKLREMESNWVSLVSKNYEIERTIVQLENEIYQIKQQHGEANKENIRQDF
UniProt Q86UU0, sequence (Q86UU0 whole entry): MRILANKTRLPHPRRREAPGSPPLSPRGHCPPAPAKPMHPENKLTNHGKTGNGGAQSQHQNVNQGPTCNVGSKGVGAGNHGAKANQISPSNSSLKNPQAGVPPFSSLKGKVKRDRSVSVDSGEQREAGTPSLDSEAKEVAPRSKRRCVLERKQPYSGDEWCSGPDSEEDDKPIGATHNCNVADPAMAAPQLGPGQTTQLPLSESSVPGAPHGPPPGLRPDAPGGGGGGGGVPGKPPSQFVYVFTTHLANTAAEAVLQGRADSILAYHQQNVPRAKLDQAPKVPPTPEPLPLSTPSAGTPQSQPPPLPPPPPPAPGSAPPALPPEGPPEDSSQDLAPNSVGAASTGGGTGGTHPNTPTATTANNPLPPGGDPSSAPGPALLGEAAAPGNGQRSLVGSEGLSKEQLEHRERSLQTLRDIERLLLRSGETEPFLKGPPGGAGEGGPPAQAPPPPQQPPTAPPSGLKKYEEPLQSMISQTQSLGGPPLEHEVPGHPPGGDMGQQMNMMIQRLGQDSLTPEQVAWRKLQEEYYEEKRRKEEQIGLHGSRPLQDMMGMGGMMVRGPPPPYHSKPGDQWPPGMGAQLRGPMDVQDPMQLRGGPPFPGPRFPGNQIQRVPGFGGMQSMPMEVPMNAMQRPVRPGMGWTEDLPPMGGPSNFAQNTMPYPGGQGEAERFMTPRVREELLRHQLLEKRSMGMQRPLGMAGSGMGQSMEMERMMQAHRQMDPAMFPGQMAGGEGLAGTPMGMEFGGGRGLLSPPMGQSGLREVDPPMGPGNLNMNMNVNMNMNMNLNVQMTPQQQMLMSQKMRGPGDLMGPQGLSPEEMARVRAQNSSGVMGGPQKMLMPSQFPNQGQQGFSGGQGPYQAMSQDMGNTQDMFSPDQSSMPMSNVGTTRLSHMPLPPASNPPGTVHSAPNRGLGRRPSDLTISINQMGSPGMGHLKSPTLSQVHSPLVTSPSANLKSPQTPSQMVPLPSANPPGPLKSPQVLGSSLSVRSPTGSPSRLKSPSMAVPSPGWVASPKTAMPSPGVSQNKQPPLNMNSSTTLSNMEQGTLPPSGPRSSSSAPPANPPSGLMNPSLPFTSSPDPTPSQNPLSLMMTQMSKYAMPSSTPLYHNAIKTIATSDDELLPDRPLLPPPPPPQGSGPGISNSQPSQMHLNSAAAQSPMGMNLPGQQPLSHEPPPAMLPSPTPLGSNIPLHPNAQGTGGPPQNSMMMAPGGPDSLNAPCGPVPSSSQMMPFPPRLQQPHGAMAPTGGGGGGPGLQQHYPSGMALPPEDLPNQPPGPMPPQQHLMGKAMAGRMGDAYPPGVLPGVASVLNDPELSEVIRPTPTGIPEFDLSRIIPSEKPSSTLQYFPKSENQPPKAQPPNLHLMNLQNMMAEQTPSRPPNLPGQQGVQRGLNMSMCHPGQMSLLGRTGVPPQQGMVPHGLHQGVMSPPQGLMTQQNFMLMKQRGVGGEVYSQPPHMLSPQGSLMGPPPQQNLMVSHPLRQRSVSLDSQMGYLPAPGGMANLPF
UniProt Q9BXK5, sequence (Q9BXK5 whole entry): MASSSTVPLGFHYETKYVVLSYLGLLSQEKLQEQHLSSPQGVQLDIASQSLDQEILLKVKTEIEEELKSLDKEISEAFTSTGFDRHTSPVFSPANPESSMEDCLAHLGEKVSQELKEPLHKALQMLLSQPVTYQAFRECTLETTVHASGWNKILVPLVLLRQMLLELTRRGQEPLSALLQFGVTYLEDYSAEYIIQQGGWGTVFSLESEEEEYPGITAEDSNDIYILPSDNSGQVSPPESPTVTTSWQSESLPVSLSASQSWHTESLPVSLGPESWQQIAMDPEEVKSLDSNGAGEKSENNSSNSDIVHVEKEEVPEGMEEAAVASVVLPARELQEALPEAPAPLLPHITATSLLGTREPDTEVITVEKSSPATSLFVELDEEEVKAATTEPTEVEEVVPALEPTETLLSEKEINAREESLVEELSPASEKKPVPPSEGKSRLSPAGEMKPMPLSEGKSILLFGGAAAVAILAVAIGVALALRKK
UniProt O15155, sequence (O15155 whole entry): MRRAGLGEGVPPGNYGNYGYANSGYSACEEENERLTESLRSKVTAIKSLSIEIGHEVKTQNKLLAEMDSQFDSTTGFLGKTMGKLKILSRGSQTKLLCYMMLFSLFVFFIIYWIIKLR
UniProt Q13867, sequence (Q13867 whole entry): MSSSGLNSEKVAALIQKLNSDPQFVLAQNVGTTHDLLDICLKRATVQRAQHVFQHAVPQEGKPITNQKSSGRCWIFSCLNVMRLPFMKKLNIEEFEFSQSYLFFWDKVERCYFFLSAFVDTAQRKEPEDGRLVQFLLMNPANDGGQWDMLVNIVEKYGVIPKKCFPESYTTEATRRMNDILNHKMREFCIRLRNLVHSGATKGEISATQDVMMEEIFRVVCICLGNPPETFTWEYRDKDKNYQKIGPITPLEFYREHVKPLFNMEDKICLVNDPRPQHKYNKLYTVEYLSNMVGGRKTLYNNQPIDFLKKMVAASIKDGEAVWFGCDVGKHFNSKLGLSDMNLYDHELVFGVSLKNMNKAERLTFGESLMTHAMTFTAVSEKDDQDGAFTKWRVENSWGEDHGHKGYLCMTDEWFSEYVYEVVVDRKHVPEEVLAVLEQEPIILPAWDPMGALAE
UniProt P21953, sequence (P21953 whole entry): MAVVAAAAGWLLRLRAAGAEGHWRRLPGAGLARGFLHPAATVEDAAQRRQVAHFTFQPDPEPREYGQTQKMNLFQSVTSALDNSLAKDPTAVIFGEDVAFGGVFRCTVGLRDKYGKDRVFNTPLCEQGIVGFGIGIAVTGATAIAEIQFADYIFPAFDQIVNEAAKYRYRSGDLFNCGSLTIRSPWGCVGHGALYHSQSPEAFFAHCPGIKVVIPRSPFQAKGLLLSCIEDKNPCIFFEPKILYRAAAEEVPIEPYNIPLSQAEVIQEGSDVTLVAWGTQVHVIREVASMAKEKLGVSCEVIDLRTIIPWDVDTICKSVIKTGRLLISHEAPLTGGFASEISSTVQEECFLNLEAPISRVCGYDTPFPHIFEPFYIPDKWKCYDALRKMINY
UniProt Q9NQY0, sequence (Q9NQY0 whole entry): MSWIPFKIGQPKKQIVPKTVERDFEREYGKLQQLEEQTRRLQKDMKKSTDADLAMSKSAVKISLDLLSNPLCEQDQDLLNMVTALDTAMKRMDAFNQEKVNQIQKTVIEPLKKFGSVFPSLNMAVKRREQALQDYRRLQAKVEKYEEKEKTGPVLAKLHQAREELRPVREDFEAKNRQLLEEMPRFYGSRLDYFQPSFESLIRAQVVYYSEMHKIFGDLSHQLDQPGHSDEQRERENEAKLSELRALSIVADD
UniProt O95999, sequence (O95999 whole entry): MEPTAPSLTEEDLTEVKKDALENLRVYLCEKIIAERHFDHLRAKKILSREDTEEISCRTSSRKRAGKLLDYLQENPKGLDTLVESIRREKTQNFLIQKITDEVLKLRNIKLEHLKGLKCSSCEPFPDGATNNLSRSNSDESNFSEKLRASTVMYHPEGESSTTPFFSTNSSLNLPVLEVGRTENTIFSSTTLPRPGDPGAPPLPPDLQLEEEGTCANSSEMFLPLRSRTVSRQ

Target | thermal stability z-score (potassium arsenate) | thermal stability z-score (lipoamide; [1]) | thermal stability z-score (lipoamide; arsenate co-treatment: none)
BCAS2 (UniProt O75934) | 0.558 | 0.913 | 0.747
BCAS3 (UniProt Q9H6U6) | -0.0972 | -0.0897 | 0.561
BCAT2 (UniProt O15382) | 1.1 | 0.516 | 0.0921
BCCIP (UniProt Q9P287) | -0.181 | 0.431 | -0.061
BCKDHB (UniProt P21953) | 1.11 | 0.134 | 0.149
BCKDK (UniProt O14874) | 0.935 | 0.0555 | -0.559
BCL2L13 (UniProt Q9BXK5) | 0.655 | 0.605 | 0.206
BCL3 (UniProt P20749) | -0.0259 | -0.234 | 0.114
BCL7B (UniProt Q9BQE9) | 0.537 | 3.46 | 2.78
BCL7C (UniProt Q8WUZ0) | 0.0252 | 0.0654 | 0.0122
BCL9 (UniProt O00512) | 0.421 | 0.363 | 1.23
BCL9L (UniProt Q86UU0) | -0.128 | 0.0577 | 0.096
BCL10 (UniProt O95999) | 2.16 | 0.00285 | 0.509
BCLAF1 (UniProt Q9NYF8) | -1.11 | 1.93 | 0.229
BCOR (UniProt Q6W2J9) | -0.011 | 0.0203 | 0.0502
BCR (UniProt P11274) | 0.0296 | -0.0665 | -0.0479

Target | thermal stability z-score (potassium arsenate) | thermal stability z-score (lipoamide; [1]) | thermal stability z-score (lipoamide; arsenate co-treatment: none)
BCS1L (UniProt Q9Y276) | 0.3 | 0.472 | 0.86
BDH2 (UniProt Q9BUT1) | -0.414 | -0.0305 | -0.246
BECN1 (UniProt Q14457) | -0.408 | -0.39 | -0.238
BEGAIN (UniProt Q9BUH8) | 0.144 | -0.0429 | -0.117
BET1 (UniProt O15155) | 1.11 | 0.642 | 1.03
BICC1 (UniProt Q9H694) | -0.19 | 0.291 | 0.353
BICD1 (UniProt Q96G01) | -1.74 | -1.17 | -1.22
BICD2 (UniProt Q8TD16) | 0.755 | 0.184 | 0.121
BID (UniProt P55957) | 0.587 | 0.895 | 1.36
BIN1 (UniProt O00499) | 0.183 | -0.407 | -0.803
BIN3 (UniProt Q9NQY0) | -0.201 | -0.115 | -0.19
BIRC2 (UniProt Q13490) | -0.483 | -0.731 | -0.56
BIRC5 (UniProt O15392) | 0.136 | 0.166 | 0.186
BIRC6 (UniProt Q9NR09) | 0.194 | -0.51 | -0.149
BLMH (UniProt Q13867) | 0.0746 | 0.51 | 0.365
